Results reported in patent US20200121618A1, “METHODS AND COMPOSITIONS FOR TREATMENT OF INFLAMMATION AND OXIDATIVE STRESS” (BIOELECTRON TECHNOLOGY CORPORATION, priority 2017, published 2020).

What was measured:
[1] = test system: Human Aortic Endothelial Cells (HAEC); assay: Cell viability via normalized ATP levels in HAEC; assay type: cell-based; details: higher dosing levels; 6 hours; Donors 486 and 662; FIGS. 13 and 14
Method: (§1) HAEC cells were cultured and used at passage 6. Cells were seeded in clear bottom, black wall 96-well tissue culture-treated polystyrene plates by resuspending a cell suspension at a density of 150,000 cells/mL in growth medium, then dispensing 100 microliters of cell suspension per well using an electronic multichannel pipette, corresponding to 15,000 cells/well (one plate per donor). The cell-containing plates were incubated 3 hours at 37° C. in an atmosphere with 95% humidity and 5% CO2 to allow attachment of the cells to the culture plate.
(§2) Test compounds were then added to varying final concentrations using the Tecan D300e Digital Dispenser, with subsequent back-filling with DMSO diluent to a final concentration of 0.6% (v/v). Cell plates were incubated for 20 hours at 37° C. in an atmosphere of 5% CO2 and 95% humidity.
FIGS. 7-14 present an expanded array of pro-inflammatory cytokines, including IL-6, IL-8, and TNFa (Tumor Necrosis Factor alpha). […] In these figures, GT is gamma-tocopherol, and DT is delta-tocopherol.

Male C57BL/6 mice = assay: APAP-induced liver damage in mice, serum liver enzymes ALT and AST; assay type: in vivo; details: for mean serum concentration of liver enzyme (ALT) versus APAP alone: 300 mg/kg SC pre-dosing for 4 days
Method: Compounds described herein were tested to determine their effects on liver enzyme concentrations following introduction of APAP in sufficient quantity to cause liver trauma.
Male C57BL/6 mice (Charles River Laboratories), aged 10-12 weeks, were randomly and prospectively assigned to receive treatment with either a test compound or vehicle only. Prior to commencement of testing, the animals had been pre-dosed with a test compound of either EPI-A0001 ((RRR)-alpha tocopherol quinone) or EPI-743 (REE)-alpha tocotrienol quinone) via subcutaneous injection for 4 days at levels of 300 mg/kg body weight dose(s). One additional test compound was administrated at 4 hours prior to commencement of testing. The mice were fasted for 12 hours prior to being challenged with 300 mg/kg body weight with APAP or an equal volume of the dosing vehicle (sterile saline) via […].
The animals were each administered with a single subcutaneous (SC) 300 mg/kg body weight dose of APAP or vehicle only formulation as described herein. All animals were dosed at approximately the same time on the dosing day (±1 hour). Subcutaneous doses were administered via bolus injection between the skin and underlying layers of tissue in the scapular region on the back of each animal. The hair was not clipped from the injection site prior to dosing. The injection site was monitored for necrosis and other changes to the skin and hair.
At the time of sample collection, livers were collected for histopathology and metabolomics analyses and blood was collected for metabolomics analyses or separated into serum for the liver enzyme (AST, ALT) analyses.

[2] = test system: Human Aortic Endothelial Cells (HAEC) stimulated with IL-1β; assay: Suppression of cytokine release from IL-1β-stimulated endothelial cells (Meso Scale); assay type: cell-based; details: for drop in levels of IL-6: versus DMSO control and alpha-tocopherol, Donors 1 and 2; for difference in cytokine suppression between diastereomers: A0001-RRR versus A0001-SRR
Method: Human Aortic Endothelial Cells (HAEC) stimulated with IL-1β result in the secretion of pro-inflammatory cytokines IL-6, IL-8 and MCP-1 as described in Wu et al., Atherosclerosis 147, 297-307 (1999). The detection of these secreted cytokines in the presence or absence of compounds was performed using Meso Scale technology.
HAEC cells from two donors (Catalog no. 2535), EGM-2 media with BulletKit supplements (Catalog no. 3162) were purchased from Lonza. IL-1β (Catalog no. 200-01B) was purchased from Peprotech. Custom MSD U-plex plates with assays to detect IL-6, IL-8 and TNF-α (Catalog no. K15067L) were purchased from Meso Scale Discovery. The cells were grown in tissue culture-treated flasks according to Lonza's instructions.
Test samples were supplied in 1.5 mL glass vials. The compounds were diluted with an appropriate volume of DMSO to result in a 10 mM stock solution. Once dissolved, they were stored at −20° C.
as §1, §2
IL-1β was then added to a final concentration of 10 nanograms/mL and then cell plates were incubated at 37° C. in an atmosphere of 5% CO2 and 95% humidity for 6 hours. Media was collected in a separate polypropylene plate, foil sealed and frozen at −80° C. for up to 96 hours.
Frozen media samples were thawed on ice and IL-6, IL-8 and TNF-alpha were measured using the Meso Scale multiplex assay according to the manufacturer's instructions. Included on each MSD plate was a dilution of IL-6, IL-8 and TNF-alpha standards to accurately quantify the secreted proteins in the media.

[3] = Miscibility / solubility description; assay type: physicochemical
[4] = 4 hours, APAP 300 mg/kg, FIG. 1
[5] = 24 hours, 300 mg/kg SC pre-dosing, APAP 300 mg/kg, FIGS. 3 and 4

CC1=C(C)C(=O)C(CCC(C)(O)CCCC(C)CCCC(C)CCCC(C)C)=C(C)C1=O (stereo not drawn) [A0001, RRR-alpha tocopherol quinone]
effect on cell viability via normalized ATP levels [1]: only a slight effect
mean serum concentration of liver enzyme (ALT) versus APAP alone (Male C57BL/6 mice; [4]): reduction in mean serum concentrations
mean serum concentration level of ALT and AST versus APAP alone (G4) (Male C57BL/6 mice; [5]): reduction in mean serum concentration level
IL-6 suppression ([2]; 7.5 μM, 6 hours IL-1β): no longer evident
suppression of IL-6 levels ([2]; 15 μM, 6 hours IL-1β, compared with 60 μM and 30 μM): not as dramatic
drop in levels of IL-6 ([2]; 30 μM, 6 hours IL-1β): > 50%
drop in levels of IL-6 ([2]; 60 μM, 6 hours IL-1β): > 50%
dose dependence of IL-6 suppression ([2]; 7.5-60 μM, 6 hours, FIGS. 5 and 6): dosing dependent effect
difference in cytokine suppression between diastereomers ([2]; 6 hours, Donors 486 and 662): small variation
suppression of the various cytokines (IL-6, IL-8, TNFa) ([2]; 6 hours, Donors 486 and 662, FIGS. 7-12): dose dependent suppression
miscibility with other oils [3]: infinitely miscible
solubility in aqueous solvents [3]: practically insoluble

CC1=C(C)C(=O)C(CC[C@@](C)(O)CCC[C@H](C)CCC[C@H](C)CCCC(C)C)=C(C)C1=O [A0001-SRR]
difference in cytokine suppression between diastereomers ([2]; 6 hours, Donors 486 and 662): small variation

CC(=O)Nc1ccc(O)cc1 [APAP, Acetaminophen, reference compound]
mean level of ALT in serum after APAP introduction (Male C57BL/6 mice; APAP 300 mg/kg alone (G3), 4 hours, FIG. 1): approximately 3000 U/L
mean level of AST in serum after APAP introduction (Male C57BL/6 mice; APAP 300 mg/kg alone (G3), 4 hours, FIG. 2): ~3200 U/L

CC(C)=CCC/C(C)=C/CC/C(C)=C/CCC(C)(O)CCC1=C(C)C(=O)C(C)=C(C)C1=O (stereo not drawn) [EPI-743, REE-alpha tocotrienol quinone]
mean serum concentration of liver enzyme (ALT) versus APAP alone (Male C57BL/6 mice; [4]): reduction in mean serum concentrations
share of animals with AST levels near zero (Male C57BL/6 mice; 4 hours, 300 mg/kg SC pre-dosing, APAP 300 mg/kg, 3 of 10, FIG. 2): 30%
share of animals with ALT near zero (Male C57BL/6 mice; 4 hours, 300 mg/kg SC pre-dosing, APAP 300 mg/kg, 4 of 10, FIG. 1): 40%
individual ALT and AST data points (Male C57BL/6 mice; [5]): several data points at or near zero
mean serum concentration level of ALT and AST versus APAP alone (G4) (Male C57BL/6 mice; [5]): reduction in mean serum concentration level
